Reference: patent US8003660B2, “Modulators of muscarinic receptors” (Vertex Pharmaceuticals Incorporated, priority 2006, dated 2011)

Columns and labels:
Assay type in all cases: cell-based
M1 muscarinic receptor = biological target: T1, M1 muscarinic receptor (Homo sapiens, UniProt P11229); experiment: Functional mobilization of intracellular calcium (FLIPR) in CHO cells expressing M1; settings: for EC50: CHO cells expressing M1, FLIPR calcium; for Emax: CHO, read-out: M1 Efficacy; for Emax / M1 Efficacy: 100% = maximum response obtained with the Carbachol control
T1 construct: expressed in transfected cells; host or cells: CHO (M1-CHO)
T1 sequence (P11229 1-460): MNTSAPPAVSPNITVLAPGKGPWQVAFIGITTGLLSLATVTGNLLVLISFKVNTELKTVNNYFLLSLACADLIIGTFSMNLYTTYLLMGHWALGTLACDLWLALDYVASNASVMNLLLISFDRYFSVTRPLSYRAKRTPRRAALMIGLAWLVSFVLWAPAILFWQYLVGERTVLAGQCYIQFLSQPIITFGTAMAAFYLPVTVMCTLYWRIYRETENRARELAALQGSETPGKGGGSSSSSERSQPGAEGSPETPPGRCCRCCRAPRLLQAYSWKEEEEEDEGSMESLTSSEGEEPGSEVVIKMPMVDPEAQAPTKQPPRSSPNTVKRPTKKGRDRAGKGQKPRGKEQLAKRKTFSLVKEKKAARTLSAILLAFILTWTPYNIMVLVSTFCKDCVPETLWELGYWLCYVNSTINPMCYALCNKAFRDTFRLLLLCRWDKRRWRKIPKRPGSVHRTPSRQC
Outline: (§1)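 Calcium flux is read on FLIPR over 60 sec at 488/540 nm in muscarinic-receptor CHO lines. Antagonist mode adds carbachol at EC80 after 15 min compound preincubation or with simultaneous co-application. Agonist mode adds compound alone. Cells carry Fluo-3 or Calcium 3 dye in probenecid-containing pH 7.4 buffer, 0.5% DMSO final.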

M2 muscarinic receptor = biological target: T2, M2 muscarinic receptor (Homo sapiens, UniProt P08172); experiment: Functional mobilization of intracellular calcium (FLIPR) in CHO cells expressing M2; settings: for EC50: CHO cells expressing M2, FLIPR calcium; for Emax: CHO, read-out: M2 Efficacy; for Emax / M2 Efficacy: 100% = maximum response obtained with the Carbachol control
T2 construct: expressed in transfected cells; host or cells: CHO (M2-CHO)
T2 sequence (P08172 1-466): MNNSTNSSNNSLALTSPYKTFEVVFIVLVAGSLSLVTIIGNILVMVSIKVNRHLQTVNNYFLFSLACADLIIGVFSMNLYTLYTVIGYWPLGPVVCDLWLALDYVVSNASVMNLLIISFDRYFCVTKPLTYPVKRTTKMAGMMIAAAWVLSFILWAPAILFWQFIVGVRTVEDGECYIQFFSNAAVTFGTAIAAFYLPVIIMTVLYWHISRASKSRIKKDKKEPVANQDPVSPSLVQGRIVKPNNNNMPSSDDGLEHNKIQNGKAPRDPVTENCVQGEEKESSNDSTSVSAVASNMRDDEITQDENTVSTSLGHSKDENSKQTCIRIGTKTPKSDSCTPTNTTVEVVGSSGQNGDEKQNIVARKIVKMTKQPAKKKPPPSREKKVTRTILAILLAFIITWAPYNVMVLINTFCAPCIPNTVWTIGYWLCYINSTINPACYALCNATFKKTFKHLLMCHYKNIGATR
Outline: as §1

M3 muscarinic receptor = biological target: T3, M3 muscarinic receptor (Homo sapiens, UniProt P20309); experiment: Functional mobilization of intracellular calcium (FLIPR) in CHO cells expressing M3; settings: for EC50: CHO cells expressing M3, FLIPR calcium; for Emax: CHO, read-out: M3 Efficacy; for Emax / M3 Efficacy: 100% = maximum response obtained with the Carbachol control
T3 construct: expressed in transfected cells; host or cells: CHO (M3-CHO)
T3 sequence (P20309 whole entry): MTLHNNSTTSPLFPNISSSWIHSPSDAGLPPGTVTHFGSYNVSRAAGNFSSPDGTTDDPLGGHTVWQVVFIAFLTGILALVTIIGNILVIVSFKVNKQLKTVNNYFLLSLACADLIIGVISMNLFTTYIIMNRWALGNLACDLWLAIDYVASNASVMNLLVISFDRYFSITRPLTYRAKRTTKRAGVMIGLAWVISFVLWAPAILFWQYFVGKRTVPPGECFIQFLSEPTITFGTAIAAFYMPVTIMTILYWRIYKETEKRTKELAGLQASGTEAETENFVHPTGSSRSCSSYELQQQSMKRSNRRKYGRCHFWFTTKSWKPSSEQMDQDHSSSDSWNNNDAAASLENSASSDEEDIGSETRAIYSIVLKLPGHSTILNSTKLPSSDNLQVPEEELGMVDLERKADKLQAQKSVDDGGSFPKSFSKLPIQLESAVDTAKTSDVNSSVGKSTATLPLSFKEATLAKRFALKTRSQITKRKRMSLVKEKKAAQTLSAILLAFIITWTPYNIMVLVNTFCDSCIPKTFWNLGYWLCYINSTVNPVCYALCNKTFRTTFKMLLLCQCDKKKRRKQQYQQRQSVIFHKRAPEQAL
Outline: as §1

M4 muscarinic receptor = biological target: T4, M4 muscarinic receptor (Homo sapiens, UniProt P08173); experiment: Functional mobilization of intracellular calcium (FLIPR) in CHO cells expressing M4; settings: for EC50: CHO cells expressing M4, FLIPR calcium; for Emax: CHO, read-out: M4 Efficacy; for Emax / M4 Efficacy: 100% = maximum response obtained with the Carbachol control
T4 construct: expressed in transfected cells; host or cells: CHO (M4-CHO)
T4 sequence (P08173 1-479): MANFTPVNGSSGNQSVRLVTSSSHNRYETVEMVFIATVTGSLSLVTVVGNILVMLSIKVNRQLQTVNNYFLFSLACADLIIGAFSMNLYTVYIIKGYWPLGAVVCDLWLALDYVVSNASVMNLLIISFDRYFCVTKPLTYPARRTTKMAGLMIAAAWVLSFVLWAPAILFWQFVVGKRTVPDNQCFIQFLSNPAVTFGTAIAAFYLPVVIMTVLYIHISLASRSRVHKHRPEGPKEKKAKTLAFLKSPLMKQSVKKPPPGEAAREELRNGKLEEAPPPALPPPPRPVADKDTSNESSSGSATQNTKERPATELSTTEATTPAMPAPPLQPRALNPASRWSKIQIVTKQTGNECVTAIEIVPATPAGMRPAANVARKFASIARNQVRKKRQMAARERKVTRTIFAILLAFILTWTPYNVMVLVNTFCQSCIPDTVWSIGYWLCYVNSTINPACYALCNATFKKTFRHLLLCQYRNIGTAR
Outline: as §1

Structure (SMILES) | EC50 (M1 muscarinic receptor) [nM] | Emax (M1 muscarinic receptor) [%] | EC50 (M2 muscarinic receptor) [nM] | Emax (M2 muscarinic receptor) [%] | EC50 (M3 muscarinic receptor) [nM] | Emax (M3 muscarinic receptor) [%] | EC50 (M4 muscarinic receptor) [nM] | Emax (M4 muscarinic receptor) [%] | M1 Efficacy (M1 muscarinic receptor) | M2 Efficacy (M2 muscarinic receptor) | M3 Efficacy (M3 muscarinic receptor) | M4 Efficacy (M4 muscarinic receptor)
CCC(=O)N[C@@H]1CCC2(CCN(CCC(C)(C)C)CC2)c2ccccc21 [compound 62] | > 5000 | < 25 | > 5000 | < 25 | > 5000 | < 25 | < 2000 | 25 to 100 |  |  |  | 
CCOCC(=O)N[C@@H]1CCC2(CCN(CCC(C)(C)C)CC2)c2cc(F)ccc21 [compound 63] | < 2000 | 25 to 100 | < 2000 | < 25 | > 5000 | < 25 | < 2000 | 25 to 100 |  |  |  | 
CC(=O)N[C@@H]1CCC2(CCN(CCC(C)(C)C)CC2)c2ccccc21 [compound 64] | 2000 to 5000 | < 25 | > 5000 | < 25 | > 5000 | < 25 | < 2000 | 25 to 100 |  |  |  | 
CC(C)(C)CCN1CCC2(CC[C@@H](NC(=O)Cc3cccnc3)c3ccc(F)cc32)CC1 [compound 65] | < 2000 | 25 to 100 | 2000 to 5000 | < 25 | > 5000 | < 25 | < 2000 | 25 to 100 |  |  |  | 
CC(=O)N[C@H]1CCC2(CCN(CC(C)(C)C)CC2)c2ccccc21 [compound 66] | < 2000 | 25 to 100 | > 5000 | 25 to 100 | > 5000 | < 25 | < 2000 | 25 to 100 |  |  |  | 
CC(C)(C)CCN1CCC2(CC[C@H](NC(=O)C3CC(=O)N3)c3ccc(F)cc32)CC1 (stereo partly drawn) [compound 67] | < 2000 | 25 to 100 | < 2000 | 25 to 100 | > 5000 | < 25 | < 2000 | 25 to 100 |  |  |  | 
CC(=O)N[C@H]1CCC2(CCN(CCC(C)CCC=C(C)C)CC2)c2ccccc21 (stereo partly drawn) [compound 68] | < 2000 | > 100 | < 2000 | 25 to 100 | > 5000 | < 25 | < 2000 | 25 to 100 |  |  |  | 
CCn1cc(C(=O)N[C@H]2CCC3(CCN(CCC(C)(C)C)CC3)c3ccccc32)cn1 [compound 69] | > 5000 |  | > 5000 |  | > 5000 |  | < 2000 |  | + (efficacy was calculated to be less than 25%) | + (efficacy was calculated to be less than 25%) | + (efficacy was calculated to be less than 25%) | ++ (efficacy was calculated to be from 100% to 25%)
CCOCC(=O)N[C@H]1CCC2(CCN(CCC(C)(C)C)CC2)c2ccccc21 [compound 70] | < 2000 | 25 to 100 | < 2000 | < 25 | > 5000 | < 25 | < 2000 | 25 to 100 |  |  |  | 
CC(C)(C)CCN1CCC2(CC[C@H](NC(=O)CN3CCCCCC3=O)c3ccccc32)CC1 [compound 71] | < 2000 | 25 to 100 | < 2000 | 25 to 100 | > 5000 | < 25 | < 2000 | 25 to 100 |  |  |  | 
CC(=O)N1CCCC[C@H]1C(=O)N[C@@H]1CCC2(CCN(CCC(C)(C)C)CC2)c2cc(F)ccc21 [compound 72] | 2000 to 5000 | 25 to 100 | 2000 to 5000 | < 25 | > 5000 | < 25 | < 2000 | 25 to 100 |  |  |  | 
CCC(CC)CN1CCC2(CC[C@H](NC(C)=O)c3ccccc32)CC1 [compound 73] | < 2000 | 25 to 100 | > 5000 | < 25 | > 5000 | < 25 | < 2000 | 25 to 100 |  |  |  | 
CC(C)(C)CCN1CCC2(CC[C@H](NC(=O)c3cccnc3)c3ccccc32)CC1 [compound 74] | < 2000 |  | < 2000 |  | > 5000 |  | < 2000 |  | ++ (efficacy was calculated to be from 100% to 25%) | ++ (efficacy was calculated to be from 100% to 25%) | + (efficacy was calculated to be less than 25%) | ++ (efficacy was calculated to be from 100% to 25%)
CC(C)(C)CCN1CCC2(CC[C@@H](NC(=O)[C@@H]3CCC(=O)N3)c3ccc(F)cc32)CC1 [compound 75] | 2000 to 5000 | 25 to 100 | 2000 to 5000 | < 25 | > 5000 | < 25 | < 2000 | 25 to 100 |  |  |  | 
CC(C)(C)CCN1CCC2(CC[C@@H](NC(=O)CN3CCCC3=O)c3ccc(F)cc32)CC1 [compound 76] | < 2000 | 25 to 100 | < 2000 | 25 to 100 | > 5000 | < 25 | < 2000 | 25 to 100 |  |  |  | 
CCN(C(C)=O)[C@H]1CCC2(CCN(CCC(C)(C)C)CC2)c2cc(F)ccc21 [compound 77] | < 2000 | 25 to 100 | 2000 to 5000 | < 25 | > 5000 | < 25 | < 2000 | 25 to 100 |  |  |  | 
C[C@H](C(=O)N[C@@H]1CCC2(CCN(CCC(C)(C)C)CC2)c2cc(F)ccc21)N1CCCC1=O [compound 78] | < 2000 | 25 to 100 | < 2000 | 25 to 100 | > 5000 | < 25 | < 2000 | 25 to 100 |  |  |  | 
CC(C)(C)CCN1CCC2(CC[C@H](NC(=O)Cc3cccnc3)c3ccc(F)cc32)CC1 [compound 79] | < 2000 | 25 to 100 | < 2000 | 25 to 100 | > 5000 | < 25 | < 2000 | 25 to 100 |  |  |  | 
CC(C)CCN1CCC2(CC[C@H](NS(C)(=O)=O)c3ccccc32)CC1 [compound 80] | < 2000 | 25 to 100 | > 5000 | < 25 | > 5000 | < 25 | < 2000 | 25 to 100 |  |  |  | 
CC(=O)N1CCC(C(=O)N[C@H]2CCC3(CCN(CCC(C)(C)C)CC3)c3cc(F)ccc32)CC1 [compound 81] | 2000 to 5000 | 25 to 100 | > 5000 | < 25 | > 5000 | < 25 | < 2000 | 25 to 100 |  |  |  | 
CC(=O)N1CCCC[C@@H]1C(=O)N[C@H]1CCC2(CCN(CCC(C)(C)C)CC2)c2cc(F)ccc21 [compound 82] | < 2000 | 25 to 100 | 2000 to 5000 | < 25 | > 5000 | < 25 | < 2000 | 25 to 100 |  |  |  | 
